Results: publication PMC5073322, “Novel Natural Product-like Caged Xanthones Bearing a Carbamate Moiety Exhibit Antitumor Potency and Anti-Angiogenesis Activity In vivo” (Scientific Reports, 2016)

Tests used:
[1] = tested on: HepG2 tumours; test: HepG2 hepatoblastoma xenograft in nude mice; assay type: in vivo; conditions: 20 days; for inhibition of the tumour volume: IV, twice-daily
Description: Given the in vitro anti-tumour cell activity of 8n, we continued to evaluate its in vivo effect in hepatoblastoma xenograft models using previously reported methods, and the water-soluble anti-cancer drug 5-fluorouracil (5-FU) was used as a positive control. After tumours were established, the mice were IV injected with 2.5, 5, 10 or 50 mg/kg 8n; the lead compound DDO-6101 and antitumour drug 5-FU were used as controls. All mice had normal weights and quality of life in in vivo tests. […] The in vivo activity of 8n was also evaluated after oral administration. […] This observation may be attributed to the improved physicochemical properties of 8n compared to those of DDO-6101, such as aqueous solubility and cell membrane permeability, which were provided by modification with the carbamate moiety.
Figure 7 (A) The tumour diameters were measured and used to calculate the tumour volumes. The HepG2 xenograft-bearing mice were intravenously injected with 2.5, 5, 10 and 50 mg/kg 8n for 20 days. (B) After 20 days, mice were sacrificed and the individual tumours were weighed. *p < 0.05, […]; Student’s t-test (n = 6). (C) The tumour diameters were measured and used to calculate the tumour volumes. The HepG2 xenograft-bearing mice were orally administered 50 mg/kg 8n, 50 mg/kg DDO-6101 or 10 mg/kg 5-FU for 20 days.
All studies were performed in compliance with the relevant guidelines and regulations. Tumours on female nude mice were established by injecting 1×10^7 HepG2 cells on the dorsal surface. After four weeks, tumours of approximately 150 mm^3 were cut into pieces that were 3 mm×3 mm×3 mm in size and were then implanted in the dorsal surface of other female nude mice. One week later, mice implanted with xenografts of 100 mm^3 were selected, randomized, and […] injected with 2.5, 5, or 10-mg/kg 8n or vehicle daily for another three weeks. The tumour dimensions were measured daily with vernier calipers, and the tumour volumes were calculated using the formula: volume = (width)^2 × length/2.

[2] = tested on: HUVECs; test: Tube formation assay; assay type: cell-based, human; conditions: Matrigel
Description: (§1) GA was reported to inhibit tumour angiogenesis and may be a viable drug candidate for anti-angiogenesis and anticancer therapies. Therefore, the anti-angiogenesis activity of the caged xanthone derivative 8n was evaluated. Human umbilical vein endothelial cells (HUVECs) were used in all experiments. Cell migration is critical for endothelial cells to form blood vessels during angiogenesis, tumour growth and metastasis. […] Endothelial cell invasion is a critical part of angiogenesis; therefore, a transwell assay was performed to evaluate the ability of inactivated HUVECs to pass through the transwell membrane barrier in the presence of 8n.
Figure 8 8n had anti-angiogenesis activity in vitro and in vivo. (A) A wound-healing assay was used to evaluate the motility of HUVECs after treatment with 8n for 24 h. (B) Changes in cell motility were evaluated using a transwell assay of cell migration and invasion. (C) The effect of 8n on tube formation by HUVECs. […] (D) Zebrafish embryos treated with blank control or 1, 10, or 50 μg/ml of 8n.
The tube formation assay was performed as previously reported with some modifications. A 48-well cell culture plate and the tips used were pre-chilled at −20 °C for 10 mins and then carefully coated with Matrigel (200 μL/well; Becton Dickinson, Bedford, MA, USA). Caution was taken to avoid bubbles. […]

[3] = tested on: HCT116; test: MTT antiproliferative assay, HCT116; conditions: read-out: IC50 HCT116; MTT, 72 h
Description: (§2) The inhibition of tumour cell growth was measured by a modified tetrazolium (MTT) salt assay, as previously described[39]. Cells were cultured in a 96-well plate and treated with culture medium alone or different concentrations of the compounds. The cells were incubated for 72 h, and then, the MTT assay reagent was added. After a 4 h incubation, the formazan product was quantitated at 570 nm. The IC50 values (the concentrations that gave rise to 50% inhibition of cell viability) were calculated using GraphPad Prism 6 using a variable slope (four parameters).

[4] = tested on: A549/taxol; test: MTT antiproliferative assay, Taxol-resistant A549; assay type: cell-based; conditions: read-out: IC50 A549/taxol; MTT, 72 h; Taxol-resistant A549
Description: as §2

[5] = tested on: A549; test: MTT antiproliferative assay, A549; conditions: read-out: IC50 A549; MTT, 72 h
Description: as §2

[6] = tested on: HUVECs; test: Transwell invasion assay; assay type: cell-based, human; conditions: 0.25 μM
Description: as §1
Figure 8 8n had anti-angiogenesis activity in vitro and in vivo. (A) A wound-healing assay was used to evaluate the motility of HUVECs after treatment with 8n for 24 h. (B) Changes in cell motility were evaluated using a transwell assay of cell migration and invasion. (C) The effect of 8n on tube formation by HUVECs. HUVECs were incubated with 8n for 6 h and then transferred to Matrigel for 6 h. (D) Zebrafish embryos treated with blank control or 1, 10, or 50 μg/ml of 8n.
A transwell migration assay was performed as previously described with minor modifications. HUVECs (4×10^4 cells per well) with compound 8n were seeded in the top of transwells (Corning Incorporated) and allowed to migrate for 4 h at 37 °C, 5% CO2 and 1% O2. […]

[7] = tested on: VEGF; test: VEGF mRNA by real-time RT-PCR; assay type: cell-based; conditions: hypoxia, VEGF/GAPDH
Description: Figure 9 (A) The caged compounds (50 μM) inhibited the Hsp90 ATPase activity in a HTRF-based inhibition assay. (B) The IC50 values for the inhibition of Hsp90 ATPase by 8n, 8o and GA as detected by the HTRF Transcreener ADP kit. The test compounds were diluted to obtain a range of concentrations and incubated with Hsp90 and ATP. The amount of ADP generated was detected. (C) Western blots of the Hsp90 client proteins after HepG2 cells were treated with the indicated concentrations of 8n for 24 h. (D) The mRNA expression of VEGF was determined by real-time quantitative reverse-transcriptase polymerase chain reaction (RT-PCR) and analysed by the delta Ct method. The bars represent the means with standard error of the mean (SEM) and the fold change in the VEGF/GAPDH ratio relative to the vehicle-treated group. The different significance levels are indicated as **P < 0.05.
The influence of 8n on the degradation of Hsp90 client proteins was monitored by WB analysis. HepG2 cells were treated with different concentrations of 8n for 24 h. […] HIF-1α, as a key modulator of angiogenesis and an important client protein of Hsp90, was also examined, and the expression of HIF-1α decreased after treatment with 8n.

[8] = tested on: MDA-MB-231; test: MTT antiproliferative assay, MDA-MB-231; conditions: read-out: IC50 MDA-MB-231; MTT, 72 h
Description: as §2

Question: For `CC(C)=CCC12OC(C)(C)C3CC(C=C4C(=O)c5c(OC(=O)N6CCC(N7CCCCC7)CC6)cccc5OC431)C2=O` (centres unmarked) [Compound 8n], which “inhibition of the tumour volume” value ([1]; 2.5 mg/kg) is on record?
Answer: Its value is 27.97%.

Question: What about the “inhibition of the tumour volume” value ([1]; 5 mg/kg) of the same compound?
Answer: The value was 38.50%.

Question: And the “inhibition of the tumour volume” value ([1]; 10 mg/kg)?
Answer: Its value is 48.36%.

Question: And the “inhibition of tumour growth” value ([1]; 50 mg/kg, oral, daily)?
Answer: Its value is 30.12%.

Question: And the “tube-forming ability of HUVECs” value [2]?
Answer: The value was “significantly impaired”.

Question: What about the IC50 [3] of the same compound?
Answer: The IC50 was 0.97 ± 0.12 µM.

Question: What about the IC50 [4] of the same compound?
Answer: Its IC50 is 1.9 ± 0.12 µM.

Question: And the IC50 [5]?
Answer: Its IC50 is 7.23 ± 0.56 µM.

Question: What about the “invasion of inactivated HUVECs” value [6] of the same compound?
Answer: Its value is “almost completely inhibited”.

Question: And the “hypoxic induction of VEGF expression (mRNA)” value [7]?
Answer: The value was “substantially repressed”.

Question: What about the IC50 [8] of the same compound?
Answer: Its IC50 is 1.2 ± 0.07 µM.
